Common to all, as to test: NCI anticancer screen, dose series, 48 h
The subject of test [1] is SK-MEL-2 melanoma.
The subject of test [2] is MALME-3M melanoma.
In test [3] the test system is HL-60(TB) leukemia.
Test [4] deals with CAKI-1 renal.
Test [5] concerns HT29 colon.
Test [6] has as its system HOP-62 NSCLC.
In test [7] the test system is A549 NSCLC.

The values that follow come from PubChem BioAssay (NCI).

Several values for one entry are separate records, joined by “and”; a condition that tells them apart may be missing. Identical values can stand only once.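 1) Cells in 96-well plates. 2) Compound, 48 h, 5 concentrations. 3) Linear interpolation between surrounding doses. 4) Unreached endpoint = highest concentration. GI50 = concentration required for 50% inhibition of growth. TGI: concentration producing complete growth inhibition.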 Bounds are passed on as bounds.

For the compound `CS[C@@]1(C(=O)Nc2ccc3[nH]nc(-c4ccc(OC(C)C)nc4)c3c2)CCN(CC(=O)N2CC=C(c3ccc(-c4ncn(C)n4)cc3)CC2)C1`, the GI50 in test [1] was 0.0571 µM; in test [2], 0.0155 µM; in test [3] it was 0.0551 µM; in test [4], greater than 100 µM; in test [5] it was 0.0368 µM; in test [6], 0.378 µM. In addition, in test [7], the GI50 is 1.6 µM. The TGI was 1.11 µM in test [1]; 0.105 µM in test [2]; greater than 100 µM in test [3]; greater than 100 µM in test [4]; greater than 100 µM in test [5]; greater than 100 µM in test [6]. In test [7], this compound returned a TGI greater than 100 µM.
For `OC(c1ccccc1)c1c(-c2ccccc2)oc(-c2ccccc2)c1C(O)c1ccccc1` (configuration not stated), the TGI amounted to 31.5 µM in test [1]; 25.4 µM in test [2]; 6.13 µM in test [3]; 30.4 µM in test [4]; 23.1 µM in test [5]; 27.9 µM in test [6]. The compound further had a TGI in test [7] of 20.5 µM.
With `CC[C@@]1(OC(=O)CN)C(=O)OCc2c1cc1n(c2=O)Cc2cc3c(N)c4c(cc3nc2-1)OCO4`, the GI50 was 0.0226 µM in test [1]; 0.0124 µM in test [2]; less than 0.0001 µM in test [3]; less than 0.0001 µM in test [4]; less than 0.0001 µM in test [6]; 0.000195 µM in test [7]. The TGI is 0.327 µM in test [1]; 0.889 µM and 0.221 µM in test [2]; 0.111 µM in test [3]; greater than 100 µM in test [5]; 0.205 µM and 0.25 µM in test [6]; 0.233 µM and 1.01 µM in test [7].
`N#CSCC(=O)c1ccc(Cl)cc1`: the GI50 is 5.45 µM in test [1]; 5.76 µM in test [2]; 0.0182 µM in test [4]; 3.59 µM in test [5]; 5.19 µM in test [6]; 9.14 µM in test [7]. The TGI in test [1] was 25.7 µM; in test [2], 42.9 µM; in test [3], greater than 22.3 µM; in test [4], 1.16 µM; in test [5] it was 19.7 µM; in test [6] it was 28.8 µM. Moreover, the TGI in test [7] was greater than 49.7 µM.
`CN1CCN(c2ccc3nc4c(nc3c2C(F)(F)F)C(=O)c2ncccc2C4=O)CC1`: the GI50 in test [1] is 2.05 µM; in test [2], 1.06 µM; in test [3] it was 1.6 µM; in test [4] it was 1.2 µM; in test [5], 2.32 µM; in test [6], 1.07 µM. Moreover, the GI50 in test [7] was 1.21 µM. The TGI in test [1] came out at 4.34 µM; in test [2], 2.24 µM; in test [3] it was 5.92 µM; in test [4], 2.75 µM; in test [5], 6.18 µM; in test [6] it was 2.92 µM. For the same compound, the TGI in test [7] was 3.92 µM.
Regarding `COc1ccc(-c2cncn2-c2cc(OC)c(OC)c(OC)c2)cc1F`, the GI50 in test [1] was less than 0.0172 µM; in test [2], 49 µM; in test [3], 0.0103 µM; in test [4] it was less than 0.0197 µM; in test [5], less than 0.01 µM; in test [6], less than 0.0365 µM. Besides, in test [7], the GI50 was less than 0.0348 µM. Besides, the TGI in test [1] is greater than 100 µM; in test [2], greater than 100 µM; in test [3], less than 0.0288 µM; in test [4], greater than 24.4 µM; in test [5], greater than 38.6 µM; in test [6], greater than 100 µM. In test [7], this compound showed a TGI greater than 100 µM.
For the compound `Cc1c(N2C(=O)/C(=C\c3ccc(N(C)C)cc3)N=C2c2ccccc2)c(=O)n(-c2ccccc2)n1C`, the GI50 in test [1] was greater than 100 µM; in test [2], greater than 100 µM; in test [3], 40.2 µM; in test [4], greater than 100 µM; in test [5], 49.5 µM; in test [6], greater than 100 µM. In test [7], the GI50 was 79.1 µM. Further, the TGI in test [1], in test [2], in test [3], in test [4], in test [5] and in test [6] was greater than 100 µM each time. The same compound registered a TGI in test [7] greater than 100 µM.
Consider `CSc1ccc(C2=NN(C(=O)c3ccc(N)cc3)C(c3ccc(F)cc3)C2)cc1` (configuration not stated), for which the GI50 was 21.1 µM in test [1]; 8.09 µM in test [2]; 10.5 µM in test [3]; 15.4 µM in test [4]; 3.72 µM in test [5]; 16 µM in test [6]. Further, the GI50 in test [7] is 13.7 µM. In addition, the TGI in test [1] was determined as 39.9 µM; in test [2], 23 µM; in test [3] it was 36.1 µM; in test [4], 37.4 µM; in test [5] it was 17.5 µM; in test [6], 29.8 µM. The compound also registered a TGI in test [7] of 32.7 µM.
Consider `N#CC[C@H](C1CCCC1)n1cc(-c2ncnc3[nH]ccc23)cn1`, for which the GI50 in test [1] was 30.5 µM; in test [2], 34.1 µM; in test [3], 22.7 µM; in test [4] it was 7.91 µM; in test [5] it was 19.7 µM; in test [6], 17.2 µM. Further, in test [7], the GI50 was 30.1 µM. The TGI is 78.2 µM in test [1]; greater than 100 µM in test [2]; 60.6 µM in test [3]; greater than 100 µM in test [4]; 41.5 µM in test [5]; greater than 100 µM in test [6]. For the same compound, the TGI in test [7] is greater than 100 µM.
With `CNCCOc1nc2c3cnccc3cc(-c3cc(OC)c(OC)c(OC)c3)c2c2ccncc12`, the GI50 is 0.264 µM in test [1]; 0.0392 µM in test [2]; less than 0.0153 µM in test [3]; 0.039 µM in test [4]; 0.0372 µM in test [5]; 0.0224 µM in test [6]. Also, the GI50 in test [7] is 0.01 µM. Moreover, the TGI is 0.683 µM in test [1]; 0.194 µM in test [2]; 0.0685 µM in test [3]; 0.292 µM in test [4]; 1.07 µM in test [5]; 0.166 µM in test [6]. This compound yielded a TGI in test [7] of 0.101 µM.
Turning to `NC(=O)NC(=O)C1CCCCC1C(=O)O` (configuration not stated), the TGI in test [1], in test [2], in test [3], in test [4], in test [5] and in test [6] was greater than 100 µM in each case. In addition, the TGI in test [7] is greater than 100 µM.
